Source: patent US20200061062A1, “INHIBITORS OF HUMAN PHOSPHATIDYLINOSITOL 3-KINASE DELTA” (ICOS Corporation, priority 2000, published 2020)
Like-named read-outs stand apart in the source and are kept apart here.

Experiments:
PI3Kα = biological target: T1, PI3Kα (Homo sapiens, UniProt P42336); assay: Biochemical assay of PI3K potency and selectivity using 20 μM ATP, Alpha; conditions: for Alpha/Delta Ratio: ratio of IC50 values, > = hypothetical ratio with 100 μM substituted for the missing IC50; for IC50: read-out: Alpha IC50
T1 construct: His tag (pFastbac HTb vector) (N); FLAG; made in house; host or cells: Sf21 insect cells (baculovirus)
T1 sequence (P42336 whole entry): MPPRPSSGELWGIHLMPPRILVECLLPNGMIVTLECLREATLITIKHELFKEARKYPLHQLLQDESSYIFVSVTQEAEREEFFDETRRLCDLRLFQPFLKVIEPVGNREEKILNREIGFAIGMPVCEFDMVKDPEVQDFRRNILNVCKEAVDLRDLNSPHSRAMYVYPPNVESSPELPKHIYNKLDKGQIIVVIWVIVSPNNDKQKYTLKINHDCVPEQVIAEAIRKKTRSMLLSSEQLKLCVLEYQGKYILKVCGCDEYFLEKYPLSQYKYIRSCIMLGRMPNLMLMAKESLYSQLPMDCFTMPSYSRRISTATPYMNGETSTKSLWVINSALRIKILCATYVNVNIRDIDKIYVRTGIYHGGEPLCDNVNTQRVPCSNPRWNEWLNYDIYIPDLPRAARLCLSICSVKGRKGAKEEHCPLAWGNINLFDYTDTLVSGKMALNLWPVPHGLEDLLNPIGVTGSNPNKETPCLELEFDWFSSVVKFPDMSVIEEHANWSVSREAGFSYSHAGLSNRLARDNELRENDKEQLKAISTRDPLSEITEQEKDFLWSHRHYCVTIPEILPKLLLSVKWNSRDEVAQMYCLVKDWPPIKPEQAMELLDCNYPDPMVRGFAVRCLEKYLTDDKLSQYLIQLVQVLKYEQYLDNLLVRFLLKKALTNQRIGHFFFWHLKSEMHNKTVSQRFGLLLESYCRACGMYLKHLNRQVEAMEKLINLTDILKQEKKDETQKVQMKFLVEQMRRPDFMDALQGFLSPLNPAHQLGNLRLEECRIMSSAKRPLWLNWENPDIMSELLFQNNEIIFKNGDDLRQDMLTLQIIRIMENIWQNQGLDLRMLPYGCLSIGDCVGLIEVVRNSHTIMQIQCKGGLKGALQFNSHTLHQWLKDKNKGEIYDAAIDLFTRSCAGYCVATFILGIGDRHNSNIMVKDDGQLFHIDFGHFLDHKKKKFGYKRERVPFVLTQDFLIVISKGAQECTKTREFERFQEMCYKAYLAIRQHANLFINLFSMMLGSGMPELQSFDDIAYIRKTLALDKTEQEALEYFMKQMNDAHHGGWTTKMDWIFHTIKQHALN
T1 sequence (P27986 whole entry partner): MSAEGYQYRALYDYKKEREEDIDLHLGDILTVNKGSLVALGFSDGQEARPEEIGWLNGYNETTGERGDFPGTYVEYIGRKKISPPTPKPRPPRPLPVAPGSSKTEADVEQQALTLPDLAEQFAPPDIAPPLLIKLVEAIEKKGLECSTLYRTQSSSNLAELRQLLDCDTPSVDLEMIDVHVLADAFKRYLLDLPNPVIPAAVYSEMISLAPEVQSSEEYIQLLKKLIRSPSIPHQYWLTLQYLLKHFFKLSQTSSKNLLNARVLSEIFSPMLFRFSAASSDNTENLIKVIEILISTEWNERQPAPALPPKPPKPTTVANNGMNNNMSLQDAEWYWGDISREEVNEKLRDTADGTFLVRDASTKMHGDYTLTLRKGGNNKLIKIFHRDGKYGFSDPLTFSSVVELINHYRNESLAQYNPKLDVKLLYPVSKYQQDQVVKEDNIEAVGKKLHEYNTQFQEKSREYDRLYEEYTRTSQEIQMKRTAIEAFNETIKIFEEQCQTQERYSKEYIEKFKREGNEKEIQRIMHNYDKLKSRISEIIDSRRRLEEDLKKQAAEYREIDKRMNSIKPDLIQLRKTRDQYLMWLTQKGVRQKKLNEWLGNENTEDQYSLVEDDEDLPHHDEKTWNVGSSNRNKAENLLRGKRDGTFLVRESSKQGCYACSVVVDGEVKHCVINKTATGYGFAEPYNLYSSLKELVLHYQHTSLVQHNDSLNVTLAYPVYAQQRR
Text: (§1) Recombinant PI3K heterodimeric complexes consisting of a p110 catalytic subunit and a p85 regulatory subunit were overexpressed using the BAC-TO-BAC® HT baculovirus expression system (GIBCO/BRL), and then purified for use in biochemical assays. The four Class I PI 3-kinases were cloned into baculovirus vectors as follows: […]

PI3Kβ = biological target: T2, PI3Kβ (Homo sapiens, UniProt P42338); assay: Biochemical assay of PI3K potency and selectivity using 20 μM ATP, Beta; conditions: 20 μM ATP; for Beta/Delta Ratio: ratio of IC50 values, > = hypothetical ratio with 100 μM substituted for the missing IC50; for remaining activity at 100 µM: read-out: Beta: percent activity remaining at 100 μM, 100 μM compound did not inhibit by at least 50%; for IC50: read-out: Beta IC50
T2 construct: His tag (pFastbac HTa vector) (N); FLAG (N); made in house; host or cells: Sf21 insect cells (baculovirus)
T2 sequence (P42338 whole entry): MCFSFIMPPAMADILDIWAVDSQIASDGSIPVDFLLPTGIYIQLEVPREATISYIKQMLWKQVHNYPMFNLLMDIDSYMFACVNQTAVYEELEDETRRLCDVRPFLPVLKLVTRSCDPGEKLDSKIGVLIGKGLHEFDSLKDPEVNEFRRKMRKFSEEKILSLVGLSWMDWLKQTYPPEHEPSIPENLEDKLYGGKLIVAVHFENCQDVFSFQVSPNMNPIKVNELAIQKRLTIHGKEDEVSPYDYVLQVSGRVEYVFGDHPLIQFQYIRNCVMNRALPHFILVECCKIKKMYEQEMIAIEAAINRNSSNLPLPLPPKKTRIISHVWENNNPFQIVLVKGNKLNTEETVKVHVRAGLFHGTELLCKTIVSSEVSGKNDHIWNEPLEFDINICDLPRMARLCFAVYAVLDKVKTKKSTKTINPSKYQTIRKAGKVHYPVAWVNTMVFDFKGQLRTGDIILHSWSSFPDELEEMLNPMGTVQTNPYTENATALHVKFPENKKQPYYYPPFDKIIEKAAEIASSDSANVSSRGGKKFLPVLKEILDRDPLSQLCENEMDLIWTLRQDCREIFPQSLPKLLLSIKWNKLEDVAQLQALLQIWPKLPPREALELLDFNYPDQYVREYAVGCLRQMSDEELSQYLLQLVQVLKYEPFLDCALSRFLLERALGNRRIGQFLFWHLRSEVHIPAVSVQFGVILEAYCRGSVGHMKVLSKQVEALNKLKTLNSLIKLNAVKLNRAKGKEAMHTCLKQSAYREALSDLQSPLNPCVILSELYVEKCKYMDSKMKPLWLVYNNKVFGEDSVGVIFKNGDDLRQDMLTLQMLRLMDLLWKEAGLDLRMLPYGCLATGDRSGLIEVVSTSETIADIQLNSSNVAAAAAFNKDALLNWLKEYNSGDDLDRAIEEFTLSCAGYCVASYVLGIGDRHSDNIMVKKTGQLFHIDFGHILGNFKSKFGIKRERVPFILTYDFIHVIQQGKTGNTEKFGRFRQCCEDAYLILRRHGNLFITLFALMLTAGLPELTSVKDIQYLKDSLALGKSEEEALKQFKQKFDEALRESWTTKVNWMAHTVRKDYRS
T2 sequence (P27986 whole entry partner): as the sequence (P27986 whole entry partner) above
Experimental: Recombinant PI3K heterodimeric complexes consisting of a p110 catalytic subunit and a p85 regulatory subunit were overexpressed using the BAC-TO-BAC® HT baculovirus expression system (GIBCO/BRL), and then purified for use in biochemical assays. The four Class I PI 3-kinases were cloned into baculovirus vectors as follows:
The 3× substrate for the HTS contained 0.6 mM Na2ATP, 0.10 mCi/mL γ-[^32P]ATP (NEN, Pittsburgh, Pa.), 6 μM PIP2/PS liposomes (Avanti Polar Lipids, Inc., […].), in 20 mM HEPES, pH 7.4.

PI3Kδ = PI3Kδ (Homo sapiens, UniProt O00329, S253N); assay: Biochemical assay of PI3K potency and selectivity using 20 μM ATP, Delta; design: His tag (pFastbac HTb vector) (N); FLAG; made in house; host or cells: Sf21 insect cells (baculovirus); conditions: 20 μM ATP; read-out: Delta IC50
PI3Kδ, sequence (O00329 whole entry S253N): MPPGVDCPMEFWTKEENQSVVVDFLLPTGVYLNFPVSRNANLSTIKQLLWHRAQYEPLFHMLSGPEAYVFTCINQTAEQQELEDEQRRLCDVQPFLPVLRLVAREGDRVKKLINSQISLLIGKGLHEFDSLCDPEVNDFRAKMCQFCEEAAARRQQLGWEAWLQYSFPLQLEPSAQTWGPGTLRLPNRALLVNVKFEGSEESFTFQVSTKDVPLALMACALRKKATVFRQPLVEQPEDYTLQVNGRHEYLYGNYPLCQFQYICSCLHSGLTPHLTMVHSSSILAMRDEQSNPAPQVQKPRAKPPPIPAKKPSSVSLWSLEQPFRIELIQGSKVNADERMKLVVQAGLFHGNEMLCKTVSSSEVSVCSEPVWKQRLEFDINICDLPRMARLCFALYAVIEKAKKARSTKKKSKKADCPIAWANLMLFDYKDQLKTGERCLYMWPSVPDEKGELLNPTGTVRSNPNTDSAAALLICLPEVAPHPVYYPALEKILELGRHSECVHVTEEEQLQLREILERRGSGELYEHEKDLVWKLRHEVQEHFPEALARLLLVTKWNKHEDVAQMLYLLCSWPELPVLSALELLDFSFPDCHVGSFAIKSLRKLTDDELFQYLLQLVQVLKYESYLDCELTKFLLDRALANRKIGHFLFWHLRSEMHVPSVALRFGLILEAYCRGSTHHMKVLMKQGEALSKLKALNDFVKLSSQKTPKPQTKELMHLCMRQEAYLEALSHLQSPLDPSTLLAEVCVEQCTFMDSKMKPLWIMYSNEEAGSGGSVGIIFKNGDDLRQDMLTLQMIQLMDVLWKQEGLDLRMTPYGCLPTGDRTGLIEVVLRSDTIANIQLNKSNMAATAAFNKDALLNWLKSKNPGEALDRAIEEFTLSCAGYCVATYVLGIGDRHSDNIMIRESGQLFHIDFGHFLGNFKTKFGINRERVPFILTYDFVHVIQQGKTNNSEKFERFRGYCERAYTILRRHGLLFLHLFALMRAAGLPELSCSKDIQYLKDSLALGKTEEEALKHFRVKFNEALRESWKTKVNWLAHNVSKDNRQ
PI3Kδ, sequence (P27986 whole entry partner): as the sequence (P27986 whole entry partner) above
Text: as §1

[1] = tested on: Murine splenocytes (Balb/c); assay: B cell proliferation in response to cell surface IgM stimulation; format: cell-based; conditions: Mus musculus, Splenocyte; stimulated B cell proliferation; read-out: Mouse BCR Stim (EC50)
Experimental: In the above experiment, the B cells were stimulated using PANSORBIN®. The effect of D-000 on B cell proliferation response when they were stimulated through their cell surface IgM using anti-IgM antibody also was measured. Murine splenocytes (Balb/c) were plated into 96-well microtiter plates at 2×10^5 cells per well in 10% FBS/RPMI. Appropriate dilutions of test inhibitor in complete medium were added to the cells and the plates were incubated for 30-60 minutes prior to the addition of stimulus. Following the preincubation with test inhibitor an F(ab′)2 preparation of goat antibody specific for the μ-chain of mouse IgM was added to the wells at a final concentration of 25 μg/mL. The plates were incubated at 37° C. for 3 days and 1 μCi of [^3H]-thymidine was added to each well for the final four hours of culture. The plates were harvested onto fiber filters washed and the incorporation of radiolabel was determined using a beta counter (Matrix 96, Packard Instrument Co., Downers Grove, Ill.) and expressed as counts per minute (CPM).
Using the methods described in Examples 3-5, above, compounds of the invention were tested for inhibitory activity and potency in assays of stimulated B and T cell proliferation, neutrophil (PMN) migration, and neutrophil (PMN) elastase release. In Table 4, the values shown are effective concentrations of the compound (EC50; μM). Where no value is given, no assay was performed.

[2] = read-out: percent activity remaining at 100 μM, 20 μM ATP, 100 μM compound did not inhibit by at least 50%

Compound	Alpha IC50 column: percent activity remaining at 100 μM (PI3Kα; 20 μM ATP, 100 μM compound did not inhibit by at least 50%, 100 µM)	Alpha/Delta Ratio (PI3Kα; 20 μM ATP)	Beta/Delta Ratio (PI3Kβ)	melting point	IC50 (PI3Kα; 20 μM ATP)	remaining activity at 100 µM (PI3Kβ)	IC50 (PI3Kδ)	remaining activity at 100 µM (PI3Kα; [2])	IC50 (PI3Kβ)	EC50 [1]	remaining activity at 100 µM (PI3Kα; read-out: percent activity remaining at 100 μM)
COc1ccccc1-n1c(CSc2ncnc3[nH]cnc23)nc2ccccc2c1=O [Compound D-046, 3-(2-methoxyphenyl)-2-(9H-purin-6-ylsulfanylmethyl)-3H-quinazolin-4-one]	64%	>11	11	–	–	–	–	–	–	–	–
COc1ccccc1-n1c(Cn2cnc3c(N)ncnc32)nc2cccc(Cl)c2c1=O [Compound D-033, 2-(6-Aminopurin-9-ylmethyl)-5-chloro-3-(2-methoxyphenyl)-3H-quinazolin-4-one]	–	–	–	257 to 257.1 °C	–	–	–	–	–	–	–
O=c1c2ccccc2nc(CSc2ncnc3[nH]cnc23)n1-c1ccc(Cl)cc1 [Compound D-052, 3-(4-chlorophenyl)-2-(9H-purin-6-ylsulfanylmethyl)-3H-quinazolin-4-one]	–	0.09	>13	–	0.7 µM	69%	8 µM	–	–	–	–
Nc1ncnc2c1ncn2Cc1nc2ccc(Br)cc2c(=O)n1-c1ccccc1Cl [Compound D-002, 2-(6-Aminopurin-o-ylmethyl)-6-bromo-3-(2-chlorophenyl)-3H-quinazolin-4-one]	–	>2.3	>2.3	284.2 to 284.7 °C (dec.)	–	78%	44 µM	88%	–	–	–
COc1cc2nc(Cn3cnc4c(N)ncnc43)n(-c3ccccc3Cl)c(=O)c2cc1OC [Compound D-001, 2-(6-Aminopurin-9-ylmethyl)-3-(2-chlorophenyl)-6,7-dimethoxy-3H-quinazolin-4-one]	–	>1.5	0.66	281.5 to 282.7 °C (dec.)	–	–	68 µM	83%	45 µM	–	–
O=c1c2cc(Br)ccc2nc(CSc2ncnc3[nH]cnc23)n1-c1ccccc1Cl [Compound D-017, 6-Bromo-3-(2-chlorophenyl)-2-(9H-purin-6-ylsulfanylmethyl)-3H-quinazolin-4-one]	–	>8	>8	212 to 242 °C (dec.)	–	108%	12 µM	89%	–	–	–
CCCCn1c(Cn2cnc3c(N)ncnc32)nc2ccccc2c1=O [Compound D-050, 2-(6-aminopurin-9-ylmethyl)-3-butyl-3H-quinazolin-4-one]	–	>63	26	–	–	–	1.6 µM	99%	41 µM	–	–
O=c1c2ccccc2nc(CSc2ncnc3[nH]cnc23)n1-c1ccncc1 [Compound D-042, 2-(9H-purin-6-ylsulfanylmethyl)-3-pyridin-4-yl-3H-quinazolin-4-one]	–	>32	8	–	–	–	3 µM	70%	25 µM	–	–
O=c1c2ccccc2nc(CSc2ncnc3[nH]cnc23)n1-c1cccc(Cl)c1 [Compound D-041, 3-(3-chlorophenyl)-2-(9H-purin-6-ylsulfanylmethyl)-3H-quinazolin-4-one]	–	>25	>25	–	–	65%	4 µM	67%	–	–	–
Cc1ccccc1-n1c(Cn2cnc3c(N)ncnc32)nc2cccc(Cl)c2c1=O	–	–	–	262 to 266.5 °C	–	–	–	–	–	–	–
Nc1ncnc2c1ncn2Cc1nc2ccc(Cl)cc2c(=O)n1-c1ccccc1Cl [Compound D-004, 2-(6-Aminopurin-9-ylmethyl)-6-chloro-3-(2-chlorophenyl)-3H-quinazolin-4-one]	–	>2	>1.6	294.5 to 294.8 °C (dec.)	–	89%	64 µM	93%	–	–	–
COc1cc2nc(CSc3ncnc4[nH]cnc34)n(-c3ccccc3Cl)c(=O)c2cc1OC [Compound D-016, 3-(2-Chlorophenyl)-6,7-dimethoxy-2-(9H-purin-6-ylsulfanylmethyl)-3H-quinazolin-4-one]	–	>2.5	>3	160 to 180 °C (dec.)	–	81%	40 µM	91%	–	–	–
COc1cccc(-n2c(CSc3ncnc4[nH]cnc34)nc3ccccc3c2=O)c1 [Compound D-040, 3-(3-methoxyphenyl)-2-(9H-purin-6-ylsulfanylmethyl)-3H-quinazolin-4-one]	–	>61	>61	–	–	64%	1.7 µM	77%	–	–	–
O=c1c2cc(Cl)ccc2nc(CSc2ncnc3[nH]cnc23)n1-c1ccccc1Cl [Compound D-020, 6-Chloro-3-(2-chlorophenyl)-2-(9H-purin-6-ylsulfanylmethyl)-3H-quinazolin-4-one]	–	>53	>53	237.1 to 238.2 °C (dec.)	–	69%	1.9 µM	69%	–	–	–
Nc1ncnc2c1ncn2Cc1nc2c(Cl)cccc2c(=O)n1-c1ccccc1Cl [Compound D-008, 2-(6-Aminopurin-9-ylmethyl)-8-chloro-3-(2-chlorophenyl)-3H-quinazolin-4-one]	–	>85	57	273.3 to 273.5 °C	–	–	1.2 µM	82%	68 µM	1 µM	–
CC(=O)O.Nc1ncnc2c1ncn2Cc1nc2ccccc2c(=O)n1N1CCOCC1 [Compound D-051, 2-(6-aminopurin-9-ylmethyl)-3-morpholin-4-yl-3H-quinazolin-4-one, acetate salt]	–	>31	>31	–	–	57%	3.3 µM	–	–	–	89%
CC(=O)O.CN1CCN(n2c(CSc3ncnc4[nH]cnc34)nc3ccccc3c2=O)CC1 [Compound D-044, 3-(4-methylpiperazin-1-yl)-2-(9H-purin-6-ylsulfanylmethyl)-3H-quinazolin-4-one, acetate salt]	–	25	15	–	105 µM	–	4.2 µM	–	61 µM	–	–
O=c1c2ccc([N+](=O)[O-])cc2nc(CSc2ncnc3[nH]cnc23)n1-c1ccccc1Cl [Compound D-023, 3-(2-Chlorophenyl)-7-nitro-2-(9H-purin-6-ylsulfanylmethyl)-3H-quinazolin-4-one]	–	>4	>3.9	218 to 218.3 °C (dec.)	–	91%	26 µM	83%	–	–	–
